Reference: the supplement of paper PMC10627819
In brackets after ≈: the same amount, converted by molar mass.

What was measured:
[1] = tested on: S. aureus DSM 20231; assay: Bliss interaction score (quartile over a dose matrix) (fitness difference); higher = more antagonism (negative = synergy)
Outline: (§1)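 OD595 was read at entry into stationary phase and expressed relative to the robust mean of the no-drug wells on the same plate, capped at 1. The resulting ratio is the fitness value. The Bliss score, observed fitness minus product-based expected fitness with single-drug fitness inferred from combinations, is summarised by quartiles over technical, biological and donor/recipient replicates.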

[2] = tested on: B. subtilis 168; assay: as above
Outline: as §1

[3] = tested on: S. aureus Newman; assay: as above
Outline: as §1

[4] = tested on: S. pneumoniae D39V; assay: as above
Outline: as §1

[5] = tested on: S. aureus DSM 20231; assay: fitness (endpoint OD595 vs no drug) (fraction); higher = more growth
Outline: (§2)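 Background-subtracted growth curves were the basis for fitness, taken as the optical density at entry into stationary phase over the robust mean of no-drug control wells. A cap of 1 was applied. The curves came from OD595 readings every 30 min for 14 h at 37 °C, in 384-well plates seeded at OD595 0.01 with 30 µl, or 55 µl for S. pneumoniae.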

[6] = tested on: B. subtilis 168; assay: as above
Outline: as §2

[7] = tested on: S. aureus Newman; assay: as above
Outline: as §2

[8] = tested on: S. pneumoniae D39V; assay: as above
Outline: as §2

[9] = tested on: S. aureus DSM 20231
[10] = tested on: S. pneumoniae D39V
[11] = tested on: B. subtilis 168
[12] = tested on: S. aureus Newman
[13] = first compound 0.5 µg/mL, partner 12.5 µg/mL
[14] = first compound 0.5 µg/mL, partner 25 µg/mL
[15] = first compound 0.5 µg/mL, partner 50 µg/mL
[16] = first compound 1 µg/mL, partner 12.5 µg/mL
[17] = first compound 1 µg/mL, partner 25 µg/mL
[18] = first compound 2 µg/mL, partner 12.5 µg/mL
[19] = first compound 2 µg/mL, partner 25 µg/mL
[20] = first compound 0.125 µg/mL, partner 25 µg/mL
[21] = first compound 0.25 µg/mL, partner 12.5 µg/mL
[22] = first compound 85.5 µg/mL, partner 0.25 µg/mL
[23] = first compound 85.5 µg/mL, partner 0.5 µg/mL, one replicate
[24] = first compound 85.5 µg/mL, partner 1 µg/mL, one replicate
[25] = first compound 171 µg/mL, partner 0.0625 µg/mL
[26] = first compound 171 µg/mL, partner 0.125 µg/mL
[27] = first compound 171 µg/mL, partner 0.25 µg/mL
[28] = first compound 171 µg/mL, partner 0.5 µg/mL, one replicate
[29] = first compound 171 µg/mL, partner 1 µg/mL, one replicate
[30] = first compound 342 µg/mL, partner 0.0625 µg/mL
[31] = first compound 342 µg/mL, partner 0.125 µg/mL
[32] = first compound 342 µg/mL, partner 0.25 µg/mL
[33] = first compound 342 µg/mL, partner 0.5 µg/mL, one replicate
[34] = first compound 342 µg/mL, partner 1 µg/mL, one replicate
[35] = first compound 85.5 µg/mL, partner 1.25 µg/mL
[36] = first compound 85.5 µg/mL, partner 2.5 µg/mL
[37] = first compound 85.5 µg/mL, partner 5 µg/mL
[38] = first compound 171 µg/mL, partner 1.25 µg/mL
[39] = first compound 171 µg/mL, partner 2.5 µg/mL
[40] = first compound 171 µg/mL, partner 5 µg/mL
[41] = first compound 342 µg/mL, partner 1.25 µg/mL
[42] = first compound 342 µg/mL, partner 2.5 µg/mL
[43] = first compound 342 µg/mL, partner 5 µg/mL
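Wherever Bliss interaction score (quartile over a dose matrix) is given: first quartile when negative (synergy) and third quartile when positive (antagonism).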

## CCCCCCCCCC(=O)N[C@@H](Cc1c[nH]c2ccccc12)C(=O)N[C@H](CC(N)=O)C(=O)N[C@@H](CC(=O)O)C(=O)N[C@@H]1C(=O)NCC(=O)N[C@@H](CCCN)C(=O)N[C@@H](CC(=O)O)C(=O)N[C@H](C)C(=O)N[C@@H](CC(=O)O)C(=O)NCC(=O)N[C@H](CO)C(=O)N[C@@H]([C@H](C)CC(=O)O)C(=O)N[C@@H](CC(=O)c2ccccc2N)C(=O)O[C@@H]1C [Daptomycin] + O=C(O[C@@H]1Cc2c(O)cc(O)cc2O[C@@H]1c1cc(O)c(O)c(O)c1)c1cc(O)c(O)c(O)c1 [EGCG]
[1]
  Bliss interaction score: -0.0959
[2]
  Bliss interaction score: -0.0882
[3]
  Bliss interaction score: 0.0602
[4]
  Bliss interaction score: 0.0768
[5]; [13]
  fitness: 0.814
[5]; [14]
  fitness: 0.778
[5]; [15]
  fitness: 0.808
[5]; [16]
  fitness: 0.788
[5]; [17]
  fitness: 0.721
[5]; first compound 1 µg/mL, partner 50 µg/mL
  fitness: 0.699
[5]; [18]
  fitness: 0.728
[5]; [19]
  fitness: 0.736
[6]; first compound 0.125 µg/mL, partner 6.25 µg/mL
  fitness: 0.906
[6]; [20]
  fitness: 0.305
[6]; first compound 0.25 µg/mL, partner 6.25 µg/mL
  fitness: 0.895
[6]; [21]
  fitness: 0.719
[6]; first compound 0.5 µg/mL, partner 6.25 µg/mL
  fitness: 0.838
[6]; [13]
  fitness: 0.598
[6]; first compound 1 µg/mL, partner 6.25 µg/mL, one replicate
  fitness: 0.665
[6]; first compound 1 µg/mL, partner 12.5 µg/mL, one replicate
  fitness: 0.399
[6]; first compound 1 µg/mL, partner 25 µg/mL, one replicate
  fitness: 0.0311
[7]; first compound 0.125 µg/mL, partner 12.5 µg/mL
  fitness: 0.817
[7]; [20]
  fitness: 0.79
[7]; first compound 0.125 µg/mL, partner 50 µg/mL
  fitness: 0.742
[7]; [21]
  fitness: 0.828
[7]; first compound 0.25 µg/mL, partner 25 µg/mL
  fitness: 0.815
[7]; first compound 0.25 µg/mL, partner 50 µg/mL
  fitness: 0.754
[7]; [13]
  fitness: 0.861
[7]; [14]
  fitness: 0.843
[7]; [15]
  fitness: 0.742
[8]; [16]
  fitness: 0.909
[8]; [17]
  fitness: 0.95
[8]; [18]
  fitness: 0.921
[8]; [19]
  fitness: 0.906
[8]; first compound 2 µg/mL, partner 50 µg/mL
  fitness: 0.971
[8]; first compound 4 µg/mL, partner 50 µg/mL
  fitness: 0.832

## C[C@H]1COc2c(N3CCN(C)CC3)c(F)cc3c(=O)c(C(=O)O)cn1c23 [Levofloxacin]
[9]
  MIC: 0.15 µg/mL (≈ 0.415 µM)
[10]
  MIC: 2 µg/mL (≈ 5.53 µM)
[6]; 0.002 µg/mL
  fitness: 0.932
[6]; 0.0039 µg/mL
  fitness: 0.928
[6]; 0.0078 µg/mL
  fitness: 0.916
[6]; 0.0312 µg/mL
  fitness: 0.0401
[6]; 0.0625 µg/mL
  fitness: 0.0424
[6]; 0.125 µg/mL
  fitness: 0.0419
[8]; 0.2 µg/mL
  fitness: 0.931
[8]; 0.4 µg/mL
  fitness: 0.789
[8]; 0.8 µg/mL
  fitness: 0.468

## CN(C)C(=O)C(CCN1CCC(O)(c2ccc(Cl)cc2)CC1)(c1ccccc1)c1ccccc1 [Loperamide]
[9]
  MIC: 120 µg/mL (≈ 252 µM)
[11]
  MIC: 100 µg/mL (≈ 210 µM)
[12]
  MIC: 120 µg/mL (≈ 252 µM)
[10]
  MIC: 200 µg/mL (≈ 419 µM)
[5]; 25 µg/mL
  fitness: ≥ 1
[5]; 50 µg/mL
  fitness: 0.925
[5]; 100 µg/mL
  fitness: 0.0918
[6]; 25 µg/mL
  fitness: 0.651
[6]; 50 µg/mL
  fitness: 0.254
[6]; 100 µg/mL
  fitness: 0.03
[8]; 20 µg/mL
  fitness: ≥ 1
[8]; 40 µg/mL
  fitness: ≥ 1
[8]; 80 µg/mL
  fitness: 0.869

## CCN(CC)CCOC(=O)c1ccc(N)cc1 [Procaine] + CC1=C\[C@@H](O)CC(=O)Cc2nc(co2)C(=O)N2CCC=C2C(=O)O[C@H](C(C)C)[C@H](C)/C=C/C(=O)NC\C=C\1 [Virginiamycin M1]
[1]
  Bliss interaction score: -0.0838
[2]
  Bliss interaction score: -0.0324
[3]
  Bliss interaction score: 0.0179
[4]
  Bliss interaction score: 0.036
[5]; [22]
  fitness: 0.94
[5]; [23]
  fitness: 0.82
[5]; [24]
  fitness: 0.726
[5]; [25]
  fitness: 0.976
[5]; [26]
  fitness: ≥ 1
[5]; [27]
  fitness: 0.906
[5]; [28]
  fitness: 0.747
[5]; [29]
  fitness: 0.774
[5]; [30]
  fitness: 0.872
[5]; [31]
  fitness: ≥ 1
[5]; [32]
  fitness: 0.878
[5]; [33]
  fitness: 0.842
[5]; [34]
  fitness: 0.779
[6]; first compound 85.5 µg/mL, partner 0.0625 µg/mL
  fitness: 0.957
[6]; first compound 85.5 µg/mL, partner 0.125 µg/mL
  fitness: 0.88
[6]; [22]
  fitness: 0.905
[6]; [25]
  fitness: 0.962
[6]; [26]
  fitness: 0.92
[6]; [27]
  fitness: 0.892
[6]; [30]
  fitness: 0.904
[6]; [31]
  fitness: 0.881
[6]; [32]
  fitness: 0.882
[7]; first compound 85.5 µg/mL, partner 0.0625 µg/mL, one replicate
  fitness: ≥ 1
[7]; first compound 85.5 µg/mL, partner 0.125 µg/mL, one replicate
  fitness: ≥ 1
[7]; first compound 85.5 µg/mL, partner 0.25 µg/mL, one replicate
  fitness: ≥ 1
[7]; [23]
  fitness: 0.851
[7]; [24]
  fitness: 0.977
[7]; first compound 85.5 µg/mL, partner 2 µg/mL, one replicate
  fitness: 0.913
[7]; first compound 171 µg/mL, partner 0.0625 µg/mL, one replicate
  fitness: ≥ 1
[7]; first compound 171 µg/mL, partner 0.125 µg/mL, one replicate
  fitness: ≥ 1
[7]; first compound 171 µg/mL, partner 0.25 µg/mL, one replicate
  fitness: ≥ 1
[7]; [28]
  fitness: 0.766
[7]; [29]
  fitness: ≥ 1
[7]; first compound 171 µg/mL, partner 2 µg/mL, one replicate
  fitness: 0.91
[7]; first compound 342 µg/mL, partner 0.0625 µg/mL, one replicate
  fitness: ≥ 1
[7]; first compound 342 µg/mL, partner 0.125 µg/mL, one replicate
  fitness: ≥ 1
[7]; first compound 342 µg/mL, partner 0.25 µg/mL, one replicate
  fitness: ≥ 1
[7]; [33]
  fitness: 0.795
[7]; [34]
  fitness: 0.968
[7]; first compound 342 µg/mL, partner 2 µg/mL, one replicate
  fitness: 0.812
[8]; first compound 85.5 µg/mL, partner 0.15 µg/mL, one replicate
  fitness: 0.976
[8]; first compound 85.5 µg/mL, partner 0.3 µg/mL, one replicate
  fitness: 0.983
[8]; first compound 85.5 µg/mL, partner 0.5 µg/mL
  fitness: ≥ 1
[8]; first compound 85.5 µg/mL, partner 1 µg/mL
  fitness: ≥ 1
[8]; first compound 85.5 µg/mL, partner 2 µg/mL
  fitness: 0.948
[8]; first compound 171 µg/mL, partner 0.15 µg/mL, one replicate
  fitness: 0.936
[8]; first compound 171 µg/mL, partner 0.3 µg/mL, one replicate
  fitness: 0.941
[8]; first compound 171 µg/mL, partner 0.5 µg/mL
  fitness: ≥ 1
[8]; first compound 171 µg/mL, partner 1 µg/mL
  fitness: ≥ 1
[8]; first compound 171 µg/mL, partner 2 µg/mL
  fitness: 0.926
[8]; first compound 342 µg/mL, partner 0.15 µg/mL, one replicate
  fitness: 0.971
[8]; first compound 342 µg/mL, partner 0.3 µg/mL, one replicate
  fitness: 0.934
[8]; first compound 342 µg/mL, partner 0.5 µg/mL
  fitness: ≥ 1
[8]; first compound 342 µg/mL, partner 1 µg/mL
  fitness: ≥ 1
[8]; first compound 342 µg/mL, partner 2 µg/mL
  fitness: 0.951

## CCN(CC)CCOC(=O)c1ccc(N)cc1 [Procaine] + CN1C2=CC=CC=C2N=C3C1=CC=CC3=O [Pyocyanin]
[1]
  Bliss interaction score: -0.0817
[2]
  Bliss interaction score: -0.0724
[3]
  Bliss interaction score: 0.148
[4]
  Bliss interaction score: -0.0685
[5]; [35]
  fitness: 0.938
[5]; [36]
  fitness: 0.854
[5]; [37]
  fitness: 0.54
[5]; [38]
  fitness: ≥ 1
[5]; [39]
  fitness: 0.986
[5]; [40]
  fitness: 0.591
[5]; [41]
  fitness: ≥ 1
[5]; [42]
  fitness: ≥ 1
[5]; [43]
  fitness: 0.56
[6]; [35]
  fitness: 0.871
[6]; [36]
  fitness: 0.846
[6]; [37]
  fitness: 0.683
[6]; [38]
  fitness: 0.869
[6]; [39]
  fitness: 0.863
[6]; [40]
  fitness: 0.669
[6]; [41]
  fitness: 0.848
[6]; [42]
  fitness: 0.748
[6]; [43]
  fitness: 0.647
[7]; [35]
  fitness: 0.864
[7]; [36]
  fitness: 0.782
[7]; [38]
  fitness: 0.89
[7]; [39]
  fitness: 0.748
[7]; [40]
  fitness: 0.448
[7]; [41]
  fitness: 0.798
[7]; [42]
  fitness: 0.776
[8]; first compound 85.5 µg/mL, partner 0.325 µg/mL
  fitness: ≥ 1
[8]; first compound 85.5 µg/mL, partner 0.65 µg/mL
  fitness: 0.975
[8]; first compound 85.5 µg/mL, partner 1.3 µg/mL, one replicate
  fitness: 0.433
[8]; first compound 171 µg/mL, partner 0.325 µg/mL
  fitness: 0.998
[8]; first compound 171 µg/mL, partner 0.65 µg/mL
  fitness: ≥ 1
[8]; first compound 171 µg/mL, partner 1.3 µg/mL, one replicate
  fitness: 0.585
[8]; first compound 342 µg/mL, partner 0.325 µg/mL
  fitness: 0.991
[8]; first compound 342 µg/mL, partner 0.65 µg/mL
  fitness: 0.966
[8]; first compound 342 µg/mL, partner 1.3 µg/mL, one replicate
  fitness: 0.524
